{"source": "patent US20230088644A1", "about": "“COMPOSITION FOR INDUCING DIFFERENTIATION INTO INSULIN-PRODUCING CELLS, AND USE THEREOF” (SEOUL NATIONAL UNIVERSITY R&DB FOUNDATION, priority 2020, published 2023)", "key": {"[1]": {"tested_on": "human umbilical cord blood cells", "assay_type": "cell-based", "description": "Umbilical cord blood-derived mononuclear cells were freshly isolated using Ficoll-gradient protocol and suspended in a lysis solution (BD Pharmingen) to remove red blood cells.\nDifferentiation was induced by treating (priming) with putrescine in the same manner as in the method of Example 1.2, except that putrescine was added to a concentration of 1 mM or 5 mM, and the gene expression levels for insulin (INS) and factors (MAFA, NEUROG3) that promote the differentiation into insulin-producing beta cells were measured by performing quantitative real time PCR in the same manner as in the method of Example 1.2.\n(§1) Samples were divided into (1) putrescine alone-treated group (5 mM), (2) putrescine (5 mM) and glucosamine (5 mM)-co-treated group, (3) putrescine (5 mM), glucosamine (5 mM), and nicotinamide (10 mM)-co-treated group, and (4) control (non-treated group). Umbilical cord blood cells (prepared in the same manner as in Example 1.3) and mouse bone marrow cells (prepared in the same manner as in Example 1.1) were cultured in suspension to induce the differentiation into insulin-producing cells.\n(§2) On day 6 after priming the umbilical cord blood cells or mouse bone marrow cells for differentiation, total RNA was extracted to perform quantitative real-time PCR, similarly to the method of Example 1.2, and the mRNA expression of insulin and beta cell differentiation-related genes (MAFA, PDX1, or NEUROG3) was determined, as shown in FIGS. 4 (in primed umbilical cord blood cells) and 5 (in primed mouse bone marrow cells).\nUmbilical cord blood cells were isolated in the same manner as in Example 1.3, and the differentiation effect on culture medium was determined. […] On day 6 after the culture, the expression levels of genes were compared in the cells in which differentiation was induced in the DMEM or CMRL1066 culture medium, respectively, using RT-PCR and quantitative real-time PCR. The conditions for quantitative real-time PCR were the same as in Example 1.2, and RT-PCR was performed with the following steps; 1) initial denaturation of 94° C. for 5 minutes; 2) amplification of 94° C. for 30 seconds, 60° C. for 30 seconds, and 72° C. for 1 minute by repeating the cycle 30 times; 3) final extension of 72° C. for 10 minutes.\nCells were collected on day 6 after the culture to confirm the appearance of insulin-producing cells."}, "[2]": {"tested_on": "umbilical cord blood cells", "assay": "Insulin secretion of differentiated umbilical cord blood cells, insulin ELISA", "details": "BP-1-102 added on day 4; primed 6 days, then 3 days in CMRL1066 with 11 mM glucose; supernatant ELISA"}, "mouse bone marrow cells": {"tested_on": "mouse bone marrow cells", "assay": "Differentiation of mouse bone marrow cells into insulin-producing cells, RT-PCR / quantitative real-time PCR", "assay_type": "cell-based", "details": "for insulin expression compared to the control: 10 mM each, 6 days, DMEM", "description": "Mouse bone marrow cells were isolated from 8-week-old male C57BL/6 mice (Orientbio Inc.) in the same manner as in Example 1.1. Bone marrow cells in DMEM culture medium (Dulbecco's Modified Eagle's Medium) (standard medium) containing 5.5 mM glucose, 10% FBS, and 1% antibiotics were seeded at 5×10^6 cells/ml into a 12-well non-coated plate, treated with glucosamine (GlcN) and putrescine (Put) to a concentration of 10 mM each or together, and cultured for 6 days in suspension for differentiation.\nTo investigate whether or not insulin-producing cells appeared, the gene expression levels of insulin (INS), MAFA, PDX-1, and NEUROG3 were measured by a quantitative real-time PCR method, as in the method of Example 1.2, which are shown in FIG. 3.\nas §1, §2"}, "human bone marrow cells": {"tested_on": "human bone marrow cells", "details": "5 mM putrescine, 6 days, DMEM; compared to control without putrescine"}, "[3]": {"details": "added to 5 mM putrescine, 5 mM glucosamine, 10 mM nicotinamide in CMRL1066, JSI-124 0.1 μM, CPT 1 μM, BP-1-102 10 μM, day 6"}}, "note": "Like-named read-outs stand apart in the source and are kept apart here."}
{"smiles": "CN(CC(=O)N(Cc1ccc(C2CCCCC2)cc1)c1ccc(C(=O)O)c(O)c1)S(=O)(=O)c1c(F)c(F)c(F)c(F)c1F", "note": "[BP-1-102]", "values": [{"measurement": "mRNA expression levels of insulin and beta cell differentiation-related genes, order among STAT3 inhibitors", "setting": "[1]", "result": "significantly increased in the order of CPT <JSI-124<BP-1-102"}, {"measurement": "mRNA expression of insulin compared to treatment only with glucosamine, putrescine, and nicotinamide", "setting": "[1]", "result": "≥ 3", "unit": "fold"}, {"measurement": "insulin secretion compared to only three differentiation-inducing factors (glucosamine, putrescine, and nicotinamide)", "setting": "[2]", "result": "≥ 10", "unit": "fold"}]}
{"smiles": "C[C@H]1COC2=C1C(=O)C(=O)c1c2ccc2c1CCCC2(C)C", "note": "[CPT]", "values": [{"measurement": "mRNA expression levels of insulin and beta cell differentiation-related genes, order among STAT3 inhibitors", "setting": "[1]; [3]", "result": "significantly increased in the order of CPT <JSI-124<BP-1-102"}]}
{"smiles": "CC(C)(O)/C=C/C(=O)[C@](C)(O)C1[C@H](O)C[C@@]2(C)[C@@H]3CC=C4C(C=C(O)C(=O)C4(C)C)[C@]3(C)C(=O)C[C@]12C", "note": "(stereo partly drawn) [JSI-124]", "values": [{"measurement": "mRNA expression levels of insulin and beta cell differentiation-related genes, order among STAT3 inhibitors", "setting": "[1]; [3]", "result": "significantly increased in the order of CPT <JSI-124<BP-1-102"}, {"measurement": "mRNA expression levels of insulin (INS) and beta cell differentiation-related genes (PDX1, NEUROG3, or NEUROD1)", "setting": "mouse bone marrow cells; 100 nM added on day 4 after the culture, compared to treatment at other time points (day 0, 2)", "result": "significantly increased"}, {"measurement": "expression levels of genes promoting differentiation into insulin-producing cells", "setting": "mouse bone marrow cells; STAT3 inhibitor 100 nM added on day 0, 2 or 4 to glucosamine, putrescine and nicotinamide in CMRL 1066, collected day 6", "result": "increased"}]}
{"smiles": "N[C@H]1C(O)O[C@H](CO)[C@@H](O)[C@@H]1O", "note": "(stereo partly drawn) [glucosamine]", "values": [{"measurement": "insulin expression compared to the control", "setting": "mouse bone marrow cells", "result": 2, "unit": "fold"}]}
{"smiles": "NCCCCN", "note": "[putrescine, 1,4-diaminobutane]", "values": [{"measurement": "mRNA expression of beta cell-specific genes (INS, MAFA, and NEUROG3)", "setting": "[1]; 5 mM putrescine, 6 days, DMEM, compared to control cells without putrescine", "result": "significantly increased"}, {"measurement": "gene expression levels for insulin and the factors that promote the beta cell differentiation", "setting": "[1]; putrescine at a concentration of 5 mM or more (0.1 to 20 mM tested), 6 days", "result": "significantly increased"}, {"measurement": "mRNA expression of insulin (INS), MAFA, PDX1, and NEUROG3", "setting": "human bone marrow cells", "result": "significantly increased"}, {"measurement": "insulin expression compared to the control", "setting": "mouse bone marrow cells", "result": 4.3, "unit": "fold"}]}
